# In patent publication US20050239844A1, “Composition fo preventing secretion of immunoglobulin e-dependent histamine releasing factor” (KYUNG-LIM LEE, priority 2002, published 2005):
# Columns and labels:
# Assay type in all cases: in vivo
# SD mice = assay: Anaphylaxis reaction caused by C48/80: mortality; details: pantoprazole 10 mg/kg tail vein 30 minutes before C48/80 10 mg/kg tail vein; survival for one hour
# Protocol: SD mice weighing 200-220 g were divided into three groups consisting of a negative control group, a positive control group and a test group, each group consisting of eight animals.
# 30 minutes after this pretreatment, the negative control group was injected with a phosphate buffer saline through the tail vein, the positive control group and the test group were injected with 10 mg/kg of C48/80 through the tail vein. After the injection, the number of individuals died of anaphylaxis reaction caused by C48/80 was observed. The standard of death and survival was determined by whether or not the animals survive for one hour after C48/80 administration.
# BALBc male mice [1] = assay: Ovalbumin-induced allergic rhinitis: eosinophil number in nasal mucosa (histology); details: under mucosa of anterior inferior turbinate, 400× magnification
# Protocol: 3-week-old BALBc male mice weighing 15-25 g were divided into four groups each comprising 6 or 7 animals, and then bred in a specific pathogen-free (SPF) environment for 35 days. In order to induce allergic rhinitis, 10 μg of ovalbumin (grade V, Sigma Chemical Co., Phillipsberg, N.Y.) and 1 mg of aluminum hydroxide (Al(OH)3) gel were mixed with 0.3 ml phosphate buffered saline for at least 30 minutes to prepare an ovalbumin mixture. 0.1 ml of the mixture was injected into the abdominal cavity of the mice, and each at 5, 14 and 21 days later, injected once more into the abdominal cavity. At one week after the final injection into the abdominal cavity (28 days later), 30 μl phosphate buffered saline or a mixture of 100 μg ovalbumin with 30 μl phosphate buffered saline was administered into the nasal cavity using a micropipette. […] The administration of ovalalbumin into the nasal cavity and the pretreatment with the drugs before this administration were performed for 7 days, one time a day, and the next day after the administration for 7 days, the mice of all the groups was euthanized by inhalation with carbonic acid gas. […] The measured results were statistically analyzed by the Mann-Whitney U-test, using SPSS for Windows version 10 (SPSS Inc., Chicago), and were determined to be statistically significant at p<0.05.
# BALBc male mice [2] = assay: Ovalbumin-induced allergic rhinitis: symptom score; details: 7 days, sneezing and nose scratching counted for 15 minutes
# Protocol: 3-week-old BALBc male mice weighing 15-25 g were divided into four groups each comprising 6 or 7 animals, and then bred in a specific pathogen-free (SPF) environment for 35 days. In order to induce allergic rhinitis, 10 μg of ovalbumin (grade V, Sigma Chemical Co., Phillipsberg, N.Y.) and 1 mg of aluminum hydroxide (Al(OH)3) gel were mixed with 0.3 ml phosphate buffered saline for at least 30 minutes to prepare an ovalbumin mixture. 0.1 ml of the mixture was injected into the abdominal cavity of the mice, and each at 5, 14 and 21 days later, injected once more into the abdominal cavity. At one week after the final injection into the abdominal cavity (28 days later), 30 μl phosphate buffered saline or a mixture of 100 μg ovalbumin with 30 μl phosphate buffered saline was administered into the nasal cavity using a micropipette. […] Then, in each mouse, the number of expression of characteristic symptoms of allergic rhinitis, i.e., the number of expression of symptoms, such as sneezing and the action of scratching the nose, was measured for 15 minutes after a given period, and their sum was recorded as a symptom score. The symptom score was recorded as the mean of scores measured by two observers, and scores having at least 30% difference between the two observers were excluded.
smiles,measurement,setting,value
"COc1ccnc(C[S+]([O-])c2nc3ccc(OC(F)F)cc3[nH]2)c1OC (centres unmarked) [Inventive composition, pantoprazole]",Mortality (number of dead individuals/number of total individuals),SD mice,4/8
same,"eosinophil number (row printed as Symptom score), Mean",BALBc male mice [1]; pantoprazole 10 mg/kg,5.57
same,"eosinophil number (row printed as Symptom score), Mean",BALBc male mice [1]; pantoprazole 100 mg/kg,4.29
same,"Symptom score, Mean",BALBc male mice [2]; pantoprazole 10 mg/kg into abdominal cavity 30 minutes before nasal ovalbumin,27.29
same,"Symptom score, Mean",BALBc male mice [2]; pantoprazole 100 mg/kg into abdominal cavity 30 minutes before nasal ovalbumin,48.00
